Test results from the NIST ThermoML archive (doi:10.1016/j.jct.2004.10.011).

Assay: xn = mol fraction of the nth substance listed
Conditions: Liquid, Vibrating tube method

CCC(=O)c1ccccc1 [ethyl phenyl ketone] + Cc1ccccc1
mass density [kg/m3]
Conditions	x2 = 0	x2 = 0.1048	x2 = 0.2025	x2 = 0.3006	x2 = 0.3991	x2 = 0.4998	x2 = 0.6004	x2 = 0.7036	x2 = 0.8028	x2 = 0.902
298.15 K, 100 kPa	1005.3	993.5	982.2	970.2	957.5	943.76	929.02	913.4	897.3	880.1
298.15 K, 2130 kPa	1006.4	994.6	983.3	971.3	958.6	944.95	930.27	914.7	898.6	881.5
298.15 K, 4150 kPa	1007.5	995.8	984.5	972.6	959.9	946.25	931.61	916	900	882.9
298.15 K, 6180 kPa	1008.7	996.9	985.7	973.8	961.2	947.55	932.93	917.4	901.4	884.4
298.15 K, 8210 kPa	1009.8	998.1	986.9	975	962.4	948.81	934.23	918.7	902.8	885.8
298.15 K, 10230 kPa	1010.9	999.2	988	976.1	963.6	950.05	935.53	920	904.2	887.2
298.15 K, 11250 kPa	1011.5	999.8	988.6	976.7	964.2	950.67	936.16	920.7	904.8	887.9
298.15 K, 12260 kPa	1012.1	1000.3	989.2	977.3	964.8	951.26	936.78	921.3	905.5	888.6
298.15 K, 14290 kPa	1013.2	1001.5	990.3	978.5	966	952.5	938.05	922.6	906.8	890
298.15 K, 16310 kPa	1014.3	1002.6	991.4	979.6	967.1	953.69	939.26	923.8	908.1	891.3
298.15 K, 18340 kPa	1015.3	1003.7	992.5	980.7	968.3	954.88	940.49	925.1	909.4	892.6
298.15 K, 20370 kPa	1016.4	1004.8	993.6	981.8	969.4	956.04	941.68	926.3	910.7	893.9
298.15 K, 22390 kPa	1017.5	1005.8	994.7	983	970.5	957.19	942.87	927.5	911.9	895.2
298.15 K, 24420 kPa	1018.5	1006.9	995.8	984	971.7	958.35	944.05	928.7	913.1	896.5
298.15 K, 26450 kPa	1019.5	1007.9	996.8	985.1	972.7	959.45	945.21	929.9	914.3	897.8
298.15 K, 28470 kPa	1020.5	1009	997.9	986.2	973.8	960.58	946.36	931.1	915.5	899
298.15 K, 29490 kPa	1021	1009.5	998.4	986.7	974.3	961.14	946.92	931.7	916.1	899.6
298.15 K, 30500 kPa	1021.6	1010	998.9	987.2	974.9	961.68	947.48	932.2	916.7	900.2
298.15 K, 32530 kPa	1022.5	1011	999.9	988.3	976	962.77	948.6	933.4	917.9	901.4
298.15 K, 34550 kPa	1023.5	1012	1000.9	989.3	977	963.83	949.68	934.5	919	902.6
298.15 K, 36580 kPa	1024.5	1013	1001.9	990.3	978	964.89	950.78	935.6	920.2	903.8
298.15 K, 38600 kPa	1025.5	1013.9	1002.9	991.3	979	965.93	951.82	936.7	921.2	904.9
298.15 K, 39620 kPa	1025.9	1014.4	1003.4	991.8	979.6	966.46	952.38	937.2	921.8	905.2
308.15 K, 100 kPa	996.8	984.8	973.6	961.5	948.7	934.98	920.13	904.3	888.2	871
308.15 K, 2130 kPa	998	986	974.8	962.8	950	936.3	921.52	905.8	889.7	872.5
308.15 K, 4150 kPa	999.2	987.3	976.1	964.1	951.3	937.68	922.91	907.2	891.1	874.1
308.15 K, 6180 kPa	1000.4	988.5	977.3	965.3	952.6	939.04	924.29	908.7	892.6	875.6
308.15 K, 8210 kPa	1001.6	989.7	978.5	966.6	953.9	940.34	925.65	910.1	894	877.1
308.15 K, 10230 kPa	1002.8	990.9	979.8	967.8	955.2	941.64	927	911.4	895.5	878.6
308.15 K, 11250 kPa	1003.4	991.5	980.4	968.4	955.7	942.3	927.66	912.1	896.2	879.3
308.15 K, 12260 kPa	1003.9	992.1	981	969	956.4	942.94	928.33	912.8	896.9	880
308.15 K, 14290 kPa	1005.1	993.3	982.2	970.3	957.6	944.22	929.64	914.1	898.3	881.5
308.15 K, 16310 kPa	1006.2	994.4	983.3	971.4	958.9	945.46	930.91	915.4	899.6	882.9
308.15 K, 18340 kPa	1007.3	995.5	984.5	972.6	960	946.72	932.19	916.8	901	884.3
308.15 K, 20370 kPa	1008.4	996.7	985.6	973.8	961.2	947.92	933.45	918	902.3	885.6
308.15 K, 22390 kPa	1009.5	997.8	986.7	974.9	962.4	949.14	934.71	919.3	903.6	887
308.15 K, 24420 kPa	1010.6	998.9	987.8	976	963.6	950.33	935.93	920.6	904.9	888.3
308.15 K, 26450 kPa	1011.7	1000	988.9	977.2	964.7	951.5	937.14	921.8	906.2	889.7
308.15 K, 28470 kPa	1012.8	1001	990	978.3	965.9	952.65	938.32	923	907.4	891
308.15 K, 29490 kPa	1013.2	1001.6	990.6	978.8	966.4	953.24	938.92	923.6	908	891.6
308.15 K, 30500 kPa	1013.8	1002.1	991.1	979.4	967	953.82	939.51	924.2	908.7	892.2
308.15 K, 32530 kPa	1014.8	1003.2	992.2	980.5	968.1	954.96	940.68	925.4	909.9	893.5
308.15 K, 34550 kPa	1015.8	1004.2	993.2	981.5	969.2	956.07	941.83	926.6	911.1	894.7
308.15 K, 36580 kPa	1016.8	1005.2	994.3	982.6	970.2	957.16	942.97	927.7	912.3	896
308.15 K, 38600 kPa	1017.9	1006.2	995.3	983.6	971.3	958.24	944.07	928.9	913.4	897.2
308.15 K, 39620 kPa	1018.3	1006.7	995.8	984.1	971.9	958.83	944.64	929.5	914	897.8
